According to US8410116B2, “Bis(styryl)pyrimidine or bis(styryl)benzene compounds, pharmaceutically acceptable salts thereof, preparation method thereof, and pharmaceutical composition for prevention or treatment of diseases featuring amyloids comprising the same as an active ingredient” (Korea Institute of Science and Technology, priority 2009, dated 2013):

How the values were obtained:
beta amyloid (1-42) [1] = target: beta amyloid (1-42) (Homo sapiens, UniProt P05067); test: Inhibitory activity against beta amyloid fibril formation (ThT fluorescence); type: biochemical; conditions: for remaining activity at 10 µM: compound 10 μM, beta amyloid (1-42) 25 μM, 1 hr room temperature, beta amyloid alone (control) = 100
Description: The compounds of the present invention were assayed for inhibitory activity against the formation of beta amyloid fibrils as a function of ThT fluorescence intensity as follows. Beta amyloid (1-42) and each of the compounds of Examples 1 to 27 were dissolved in DMSO and diluted with PBS (phosphate-buffered saline, pH 7.4). The final concentrations of beta amyloid (1-42) (control) and each of the compounds of Examples 1 to 27 were set at 25 μM and 10 μM, respectively. The dilutions were incubated at room temperature for 1 hr before a solution of thioflavin T (ThT, 5 μM, pH 8.5) in glycin-NaOH buffer was added thereto. Fluorescence was measured at 450 nm for excitation (slit 10 nm) and […] for emission (slit 10 nm) on 96-well microplates using a multilabel fluorescence counter.

HT-22 cells = test: Cytotoxicity in HT-22 cell (MTT); type: cell-based, murine; conditions: compound 25 μM, 18 hrs
Description: The following experiment was performed with HT-22 cells in order to examine the cytotoxicity of the compounds of the Examples in accordance with the present invention.
(§1) The murine hippocampal neuronal cell line HT-22 was incubated at 37° C. in DMEM (Dulbecco's Modified Eagle's Medium) supplemented with 10% FBS (fetal bovine serum) and 1% penicillin/streptomycin in a 5% CO2 incubator. Before testing, HT-22 cells were seeded at a density of 5×10^3 cells/well onto 96-well plates containing serum-free DMEM and incubated for 1 hr. Afterwards, each of the compounds of Examples 1 to 27 was added at a concentration of 25 μM to each well before incubation for 18 hrs. 5 mg/ml MTT (3-(4,5-dimethyl-2-thiozolyl)-2,5-diphenyl-2H-tetrazolium bromide) solution was added in an amount of 15 μl per well and incubated for 4 hrs. A solubilization solution (10% SDS, 50% dimethylformamide, pH 4.7) was added in an amount of 100 μl to each well, followed by incubation for 18 hrs. Absorbance at 570 nm/630 nm was read on a microplate reader.

[2] = test system: HT-22 cells incubated with beta amyloid (Aβ25-35); test: Alleviating effect on beta amyloid toxicity in HT-22 cells (MTT); type: cell-based, murine; conditions: Mus musculus, compound pre-incubated 1 hr, then 25 μM beta amyloid (Aβ25-35) for 18 hrs, Aβ25-35 line = toxin alone, read-out: Cell Survival (%)
Description: as §1
The following experiment was performed in order to examine the ability of the compounds of the Examples in accordance with the present invention to alleviate beta amyloid toxicity. HT-22 cells were cultured and incubated with the compounds of Examples 1 to 27 for 1 hr in the same manner as in Example 2. Cell necrosis was induced by beta amyloid toxicity. For this, the cells were incubated with 25 μM of beta amyloid (Aβ25-35) for 18 hrs. Subsequently, a 5 mg/ml MTT solution was added in an amount of 15 μl to each well, followed by incubation for 4 hrs. Then, the cells were again incubated for 18 hrs with 100 μl/well of the solubilization solution. Absorbance at 570 nm/630 nm was read on a microplate reader.

[3] = test system: beta amyloid (1-42) injected mice; test: Y-maze task, acute Alzheimer's disease model; type: in vivo; conditions: mice i.c.v. injected with beta amyloid (1-42), compounds administered for 2 days, test on Day 2
Description: (§2) Mice 4-5 weeks old, each weighing 20˜25 g, were divided into groups of six. Intracerebroventricular injection was performed with a 50 μl Hamilton microsyringe fitted with a disposable 26-gauge needle as described by Laursen and Belknap (Laursen & Belknap, J. Pharmacol. Methods. 1986, 16, 355). It was inserted 2.4 mm deep into the bregma. All samples were administered to groups of 10 via oral routes or food pellets. After the intracerebroventricular injection, the compounds of the present invention were administered for 2 days to the mice which were then subjected to the Y-maze test on Day 2, the cognition test on Days 2 and 3, the passive avoidance test on Days 3 and 4, and the water maze test on Days 3 to 7. All data were averages of 6 measurements (mice).
(§3) Short-term memory was assessed by spontaneous alternation behavior in the Y-maze task. Spontaneous alternation behavior is considered to reflect spatial working memory, which is a form of short-term memory. A mouse was placed in one arm of a Y-maze and allowed to freely pass the three arms for 8 min. Spontaneous alternation behavior was defined as successive entries into the three arms. Percentage spontaneous alternation was calculated as the ratio of actual to possible alternations […], multiplied by 100.

[4] = test system: beta amyloid (1-42) injected mice; test: Cognitive performance task, acute Alzheimer's disease model; type: in vivo; design: Cognition % of control: concentration or dose not given beside the values; conditions: for Cognition Preference (investigation time for new matter/total investigation time): mice i.c.v. injected with beta amyloid (1-42), test on Days 2 and 3; for Cognition % of control: preference relative to control mice
Description: as §2
(§4) For the cognitive performance task, two identical substances were respectively placed 5 cm apart from two corners and the time it took for a mouse to investigate the given and new substances was measured. Investigation was defined as the condition in which a mouse sniffed with the head directing toward the substance within a diameter of 2 cm or touched the substance.

[5] = test system: beta amyloid (1-42) injected mice; test: Passive avoidance test, acute Alzheimer's disease model; type: in vivo; design: Passive Avoidance % of control: concentration or dose not given beside the values; conditions: for Passive Avoidance % of control: latency relative to control mice; for Passive Avoidance Latency: mice i.c.v. injected with beta amyloid (1-42), test on Days 3 and 4, 24 hours after training
Description: as §2
(§5) A passive avoidance test was performed as described in the literature (Song et al. J. Neurochem., 1998, 71, 875). Used was a passive avoidance box which was divided into two compartments: a lighted one and a dark one, separated by an automatic guillotine door. For training, mice were placed in the lighted compartment and electrically shocked with 0.25 mA for 1 sec whenever they entered the darkened compartment. 24 hours after training, the mice were placed in the lighted compartment and measured for latency time before entering the darkened compartment.

[6] = test system: beta amyloid (1-42) injected mice; test: Water maze test, acute Alzheimer's disease model; type: in vivo; conditions: mice injected with beta amyloid (1-42), Days 3 to 7
Description: as §2
In a water maze test, a mouse, when released from a randomly selected quadrant on each trial, was allowed to swim around the pool in search of an exit while the time taken to reach the platform (latency) was recorded.

[7] = test system: beta amyloid (1-42) injected mice; test: Behavior tests with acute AD model taken together (Y-maze, cognitive performance, passive avoidance); type: in vivo; conditions: for Memory and learning of beta amyloid (1-42) injected mice (in words): data of Table 6, with statistical significance
Description: as §2, §3, §4, §5

[8] = test system: double transgenic mice with mutations in both APP and presenilin 1; test: Y-maze task and cognitive performance tests in transgenic mice; type: in vivo; conditions: food pellets (3 mg/pellet) for 2 months, 10 month old transgenic mice
Description: (§6) Double transgenic mice with mutations in both APP and presenilin 1 were used for the tests. The double transgenic mice, each weighing 26-39 g, were eight months old. They were divided into groups of 10 and administered for 2 to 3 months with the compound of Example 1 through food pellets (3 mg/pellet) before conducting the behavior tests.
After administration of the compound of Example 1 for 2 months (for 10 month old mice), the mice were tested for learning and memory through the Y-maze task and cognitive performance tests.

[9] = test system: double transgenic mice with mutations in both APP and presenilin 1; test: Context fear conditioning in transgenic mice; type: in vivo
Description: as §6
A memory test was performed in context fear conditioning. Five trials of tone-shock pairing of CS-US (conditioned stimulus-unconditioned stimulus) were given to mice. On the next day, the mice were left in the stimulated context under no stimulus conditions and observed for freezing. […] During the test, there was no difference in average body weight between the two groups.

amyloid plaques = test: Amyloid plaque counts (Congo red) in cerebra of transgenic mice; type: in vivo; conditions: cerebral cortex and hippocampus, 11 months old transgenic mice, versus control
Description: (§7) In order to examine whether this effect resulted from inhibitory activity against the deposition of beta amyloid or from a decrease in the level of beta amyloid, the cerebra of the transgenic mice were immunohistochemically analyzed. In this regard, after being removed from the transgenic mice which were 11 months old upon completion of the behavior test, the right cerebral hemispheres were measured for amyloid plaque levels in the cerebral cortex and hippocampus using an immunostaining or ELISA (Enzyme-linked immunosorbent assay) method.
(§8) Amyloid plaques were stained with Congo red and counted. […] FIG. 4D gives neuronal cell count data, showing a larger crowd in the group treated with the compound of Example 1.

beta amyloid (1-40) = test: ELISA for beta amyloid (1-40) in cerebra of transgenic mice; type: in vivo; conditions: 11 months old transgenic mice, versus control
Description: as §7, §8

beta amyloid (1-42) [10] = test: ELISA for beta amyloid (1-42) in cerebra of transgenic mice; type: in vivo; conditions: 11 months old transgenic mice, versus control
Description: as §7, §8

neurons = test: Neuronal cell count in cerebra of transgenic mice; type: in vivo; conditions: 11 months old transgenic mice, versus control
Description: as §7, §8

[11] = compared to beta amyloid (1-42) injected mice, % of control

Sequence of beta amyloid (1-42) (Homo sapiens, UniProt P05067) (P05067 672-713 limits assumed): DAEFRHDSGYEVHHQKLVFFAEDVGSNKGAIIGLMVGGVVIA

Molecule | remaining activity at 10 µM (beta amyloid (1-42) [1]) [%] | Cell Survival (%) (HT-22 cells) | viability at 25 µM [2] [%] | Y-Maze Spontaneous Alternation (%) [3] [%] | Cognition Preference (investigation time for new matter/total investigation time) [4] | Cognition % of control [4] [%] | Passive Avoidance % of control [5] [%] | Passive Avoidance Latency [5] [s] | Spatial learning ability in water maze (latency over sessions), FIG. 1 [6] | Memory and learning of beta amyloid (1-42) injected mice (in words) [7] | also measured
Aβ1-42: beta amyloid peptide of 42 amino acids, injected intracerebroventricularly into mice to induce acute Alzheimer's disease [reference compound] |  |  |  | 61.6 | 0.54 ± 0.02 | 84 | 50.4 | 89.9 | deficient in spatial memory |  | Reduction of preference for the new matter compared to the control ([4]; beta amyloid (1-42) injected mice): about 16%; Passive Avoidance % of control ([5]; listed as beta amyloid (1-42)): about 50%
CN(C)c1cc(/C=C/c2cc(/C=C/c3ccc(O)c(N(C)C)c3)ncn2)ccc1O [Ex. 2, (E,E)-4,6-Bis[4′-hydroxy-3′-(N,N-dimethylamino)styryl]pyrimidine] | 16.5 ± 2.6 | 146.2 ± 26.6 | 85.3 ± 0.1 | 71.3 | 0.53 ± 0.05 | 82 | 66.1 | 117.8 | recover spatial learning ability | increased memory | 
COc1ccc(/C=C/c2cc(/C=C/c3ccc(OC)c(O)c3)ncn2)cc1O [Ex. 1, (E,E)-4,6-Bis(3′-hydroxy-4′-methoxystyryl)pyrimidine] | 19.1 ± 0.6 | 135.6 ± 6.1 | 91.8 ± 8.8 | 72.2 | 0.59 ± 0.03 | 92 | 80.9 | 144.2 | recover spatial learning ability | increased memory | Improvement in passive avoidance performance [5, 11]: highest improvement; Learning and memory improvement, dose dependence, FIG. 2 ([7]; 50, 100, 200 mg/kg p.o., Y-maze, cognitive performance, passive avoidance): dose-dependent manner; Learning and memory in Y-maze and cognitive performance, FIGS. 3A and 3B [8]: memory impairment was alleviated; Average body weight ([9]; transgenic mice during the test, treated versus control group): no difference; Freezing in context fear conditioning, FIG. 3C ([9]; transgenic mice, compared to control): longer time freezing; Counts of amyloid plaques stained with Congo red, FIG. 4A (amyloid plaques): smaller; Level of beta amyloid (1-40), ELISA, FIG. 4B (beta amyloid (1-40)): decreasing pattern; Level of beta amyloid (1-42), ELISA, FIG. 4C (beta amyloid (1-42) [10]): decreasing pattern; Neuronal cell count, FIG. 4D (neurons): larger crowd

More lines, main results first:

remaining activity at 10 µM (beta amyloid (1-42) [1]) [%] | Molecule | Cell Survival (%) (HT-22 cells) | viability at 25 µM [2] [%] | Y-Maze Spontaneous Alternation (%) [3] [%] | Cognition Preference (investigation time for new matter/total investigation time) [4] | Cognition % of control [4] [%] | Passive Avoidance % of control [5] [%] | Passive Avoidance Latency [5] [s] | Spatial learning ability in water maze (latency over sessions), FIG. 1 [6] | Memory and learning of beta amyloid (1-42) injected mice (in words) [7] | also measured
6.3 ± 1.8 | CN(C)c1ccc(/C=C/c2cc(/C=C/c3ccc(N(C)C)c(O)c3)ncn2)cc1O [Ex. 7, (E,E)-4,6-bis[3′-hydroxy-4′-(N,N-dimethylamino)styryl]pyrimidine] | 132.8 ± 41.1 | 76.6 ± 12.1 | 67.0 | 0.57 ± 0.02 | 89 | 68.7 | 122.5 | recover spatial learning ability | increased memory | Inhibitory activity against fibril formation (in words) (beta amyloid (1-42) [1]; Table 3): remarkable inhibitory activity
20.7 ± 5.4 | COc1cc(/C=C/c2cc(/C=C/c3ccc(O)c(OC)c3)ncn2)ccc1O [Ex. 6, (E,E)-4,6-bis(4′-hydroxy-3′-methoxystyryl)pyrimidine] | 215.6 ± 3.5 | 103 ± 13 | 67.9 | 0.61 ± 0.03 | 95 | 78.1 | 139.2 | recover spatial learning ability | increased memory | Recovery of preference for the new matter [4, 11]: about 11%
